Where “and” joins values, the source holds several entries; their conditions need not be identical. Equal entries are not always repeated.
Columns and labels:
Type in all cases: cell-based
Penicillium funiculosum [1] = assay: MIC and synergy of MIT/BIT (1:1) and IPBC in Sabouraud maltose broth, 72 h
Experimental: (§1) In all the examples in which an active substance mixture of MIT and BIT as well as additionally a further active biocidal substance was used, the weight ratio of MIT to BIT was 1:1.
(§2) The synergy index is calculated according to the method of F. C. Kull et al., Applied Microbiology, Vol. 9 (1961), p. 538. Here the synergy index is calculated using the following formula:
(§3) Synergy index SI=Qa/QA+Qb/QB.
The synergy of an active substance mixture that contains IPBC in addition to MIT and BIT, against the microorganism Penicillium funiculosum is shown as in Example 1.
(§4) The test batches contained a Sabouraud maltose broth as a nutrient medium. The spore concentration was 10^6 per mL. The incubation time was 72 h at 25° C. Each sample was incubated on an incubation shaker at 120 rpm.

Aspergillus niger [2] = assay: as above
Experimental: as §1, §2, §3
The synergy of an active substance mixture that contains 3-iodo-2-propinyl-N-butyl carbamate (IPBC) in addition to MIT and BIT, against the microorganism Aspergillus niger is shown as in Example 1.
as §4

Klebsiella pneumoniae = assay: MIC and synergy of MIT and BIT in Müller-Hinton broth, 72 h; details: for growth of the microorganism: BIT 0 ppm, MIT ppm = row head c0; as to growth of the microorganism: key: growth of the microorganism took place (symbol '+'); or not (symbol '−')
Experimental: as §2, §3
The synergy of the two active substances MIT and BIT against the microorganism Klebsiella pneumoniae is shown as in example 1.
(§5) The test batches again contained a Müller-Hinton broth as a nutrient medium. The cell density was 10^6 cells/mL. The incubation time was 72 h at 25° C. Each sample was incubated on an incubation shaker at 120 rpm.

[3] = system: standard bacterial inoculum; assay: Preservation of coating composition B, repeated bacterial inoculation, streak evaluation; design: key to Bacterial growth (7 days + 48 h after 4th inoculation): 0: no growth; minimal growth up to 10 colonies; 2: slight growth up to 100 colonies; moderate growth up to 300 colonies; 4: uniform growth, single colonies still discernible; 5: strong growth, too many colonies to count, but not covering entire surface; 6: extensive growth, almost no individual colonies, total streak surface overgrown
Experimental: (§6) The biocides shown in Table XI below were added respectively to 50 g of coating composition A. The stated amounts of biocide refer to the amount of coating composition A. In the MIT/BIT mixtures, the two biocides were present in a weight ratio of 1:1.
(§7) Apart from a blank test without addition of biocide, 1 mL of a standard bacterial inoculum that contained the following bacterial strains was added to each sample of coating composition A:
(§8) The cell density of the inoculum was 10^10 to 3·10^10 cells/mL, and the cell density of the samples was 2·10^8 to 6·10^8 cells/g. The samples were held at 30° C. for 7 days. Then a streak of each sample was produced on a nutrient agar plate, held at 30° C. for 48 h, and then evaluated for bacterial growth. The following evaluation scale was used:
(§9) When the bacterial growth was evaluated as below 6, a second bacterial inoculum of the above-mentioned type was added to the corresponding original 50 g sample and it was again held at 30° C. for 7 days. Then a streak was again produced on a nutrient agar plate, which was again evaluated for its bacterial growth after a holding time of 48 h at 30° C.
(§10) When the bacterial growth of the streak was evaluated as 6 for a sample, the testing of this sample was terminated. As long as a sample had not reached this number, a bacterial inoculum was again added in the above-mentioned manner and the sample was held and tested by means of a streak. This procedure was repeated as necessary, with a maximum of 4 bacterial inocula being added per sample.
Example 9 was repeated, but using coating composition B instead of coating composition A.
Coating composition B is a particularly low-emission plaster based on a polymer dispersion commercially available under the designation “Granol KR 3.0 LF” (company Steinwerke Kupferdreh GmbH).

Pseudomonas putida = assay: MIC and synergy of MIT and BIT in Müller-Hinton broth, 48 h; as to growth of the microorganism: key: growth of the microorganism took place (symbol '+'); or not (symbol '−')
Experimental: as §2, §3
The synergy of the two active substances MIT and BIT against the microorganism Pseudomonas putida is shown as in Example 1.
(§11) The test batches again contained a Müller-Hinton broth as a nutrient medium. The cell density was 10^6 cells/mL. The incubation time was 48 h at 25° C. Each sample was incubated on an incubation shaker at 120 rpm.

[4] = system: standard bacterial inoculum; assay: Preservation of coating composition A, repeated bacterial inoculation, streak evaluation; design: key: 0: no growth; minimal growth up to 10 colonies; 2: slight growth up to 100 colonies; moderate growth up to 300 colonies; 4: uniform growth, single colonies still discernible; 5: strong growth, too many colonies to count, but not covering entire surface; 6: extensive growth, almost no individual colonies, total streak surface overgrown
Text: Biocide compositions according to the invention were incorporated into a coating composition A that is used for coating building facades. This coating composition is a plaster based on an aqueous polymer dispersion commercially available under the designation “Granol KR 3.0” (company Steinwerke Kupferdreh GmbH). The addition of the biocide composition of the invention served to preserve the coating composition before its use, i.e., while it was stored in its packing drums.
as §6, §7, §8, §9, §10

Escherichia coli = assay: MIC and synergy of MIT and BIT in Müller-Hinton broth, 72 h; details: for growth of the microorganism: BIT 0 ppm, MIT ppm = row head c0; as to growth of the microorganism: key: growth of the microorganism took place (symbol '+'); or not (symbol '−')
Experimental: For this purpose, aqueous mixtures were produced with various concentrations of 2-methylisothiazolin-3-one (MIT) and 1,2-benzisothiazolin-3-one (BIT) and the activity of these mixtures on Escherichia coli (International Mycological Institute, Strain No. IMI 362054) was tested.
In addition to the biocide component and water, the aqueous mixtures contained a nutrient medium, namely a Müller-Hinton broth (commercial product “Merck No. 10393”). The cell density of Escherichia coli was 10^6 cells/mL. The incubation time was 72 h at 25° C. Each sample was incubated on an incubation shaker at 120 rpm.
as §2, §3
When the synergy index has the value 1, this means that there is an addition of the activity of the two biocides. When the synergy index has a value of less than 1, this means that a synergy of the two biocides exists.

Pseudomonas stutzeri = assay: as above; details: for growth of the microorganism: BIT 0 ppm, MIT ppm = row head c0; as to growth of the microorganism: key: growth of the microorganism took place (symbol '+'); or not (symbol '−')
Experimental: as §2, §3
The synergy of MIT and BIT against the microorganism Pseudomonas stutzeri is shown as in Example 1.
as §5

Pseudomonas aeruginosa = assay: MIC and synergy of MIT and BIT in Müller-Hinton broth, 48 h
Experimental: as §2, §3
The synergy of the two active substances MIT and BIT against the microorganism Pseudomonas aeruginosa is shown as in Example 1.
as §11

Aspergillus niger [5] = assay: MIC and synergy of MIT and BIT in Sabouraud maltose broth, 96 h
Experimental: as §2, §3
The synergy of the two active substances MIT and BIT against the microorganism Aspergillus niger is shown as in Example 1.
(§12) The test batches contained a Sabouraud maltose broth as a nutrient medium. The spore concentration was 10^6 per mL. The incubation time was 96 h at 25° C. Each sample was incubated on an incubation shaker at 120 rpm.

Penicillium funiculosum [6] = assay: as above
Experimental: as §2, §3
The synergy of the two active substances MIT and BIT against the microorganism Penicillium funiculosum is shown as in Example 1.
as §12

[7] = MIT share of the BIT/MIT mixture at MIC, 72 h
[8] = MIT share of the BIT/MIT mixture at MIC, 48 h
[9] = share of the BIT/MIT mixture at MIC, 96 h

CCCCNC(=O)OCC#CI [IPBC, 3-iodo-2-propinyl-N-butyl carbamate]
MIC at IPBC concentration Qb (Penicillium funiculosum [1]; IPBC share at the MIC, Penicillium funiculosum, 72 h): 0.75 ppm | Qb/QB (Penicillium funiculosum [1]; Penicillium funiculosum, 72 h): 1.00 | Synergy index Qa/QA + Qb/QB (Penicillium funiculosum [1]; Penicillium funiculosum, 72 h): 1.00 | Total concentration MIT/BIT + IPBC (Penicillium funiculosum [1]; at the MIC, Penicillium funiculosum, 72 h): 0.75 ppm | MIC value (Penicillium funiculosum [1]; used alone, 72 h at 25° C.): 0.75 ppm | Qb/QB (Aspergillus niger [2]; Aspergillus niger, 72 h): 1.00 | Synergy index Qa/QA + Qb/QB (Aspergillus niger [2]; Aspergillus niger, 72 h): 1.00 | MIC at IPBC concentration Qb (Aspergillus niger [2]; IPBC share at the MIC, Aspergillus niger, 72 h): 2.5 ppm | Total concentration BIT/MIT + IPBC Qa + Qb (Aspergillus niger [2]; at the MIC, Aspergillus niger, 72 h): 2.5 ppm | MIC value (Aspergillus niger [2]; used alone, 72 h at 25° C.): 2.5 ppm

Cn1sccc1=O [MIT, 2-methylisothiazolin-3-one]
MIC at Total concentration BIT + MIT Qa + Qb (Klebsiella pneumoniae; 72 h): 20 ppm | Qb/QB (Klebsiella pneumoniae; 72 h): 1.00 | Synergy index Qa/QA + Qb/QB (Klebsiella pneumoniae; 72 h): 1.00 | growth of the microorganism (Klebsiella pneumoniae; 72 h, MIT 12.5 ppm): + | growth of the microorganism (Klebsiella pneumoniae; 72 h, MIT 25 ppm): − | MIC at MIT concentration Qb (Klebsiella pneumoniae; [7]): 20 ppm | MIC value (Klebsiella pneumoniae; used alone, 72 h at 25° C.): 20 ppm | Bacterial growth (7 days + 48 h after 4th inoculation) ([3]; biocide 0.005% by wt): 4 | Bacterial growth (7 days + 48 h after 4th inoculation) ([3]; biocide 0.01% by wt): 1 (minimal growth up to 10 colonies) | Bacterial growth (7 days + 48 h after 4th inoculation) ([3]; biocide 0.015% by wt): 1 (minimal growth up to 10 colonies) | Bacterial growth (7 days + 48 h after 4th inoculation) ([3]; biocide 0.02% by wt): prevented completely and 0 | Bacterial growth (7 days + 48 h after 4th inoculation) ([3]; biocide 0.03% by wt): prevented completely and 0 | MIC at Total concentration BIT + MIT Qa + Qb (Pseudomonas putida; 48 h): 12.5 ppm | Qb/QB (Pseudomonas putida; 48 h): 1.00 | Synergy index Qa/QA + Qb/QB (Pseudomonas putida; 48 h): 1.00 | growth of the microorganism (Pseudomonas putida; BIT 0 ppm, MIT ppm = row head c0, 48 h): + and − | MIC at MIT concentration Qb (Pseudomonas putida; [8]): 12.5 ppm | MIC value (Pseudomonas putida; used alone, 48 h at 25° C.): 12.5 ppm | Bacterial growth (7 days + 48 h after 4th inoculation) ([4]; biocide 0.005% by wt): full bacterial growth was reached only after four inoculations and 6 | Bacterial growth (7 days + 48 h after 4th inoculation) ([4]; biocide 0.01% by wt): 5 | Bacterial growth (7 days + 48 h after 4th inoculation) ([4]; biocide 0.015% by wt): 5 | Bacterial growth (7 days + 48 h after 4th inoculation) ([4]; biocide 0.02% by wt): 4 | Bacterial growth (7 days + 48 h after 4th inoculation) ([4]; biocide 0.03% by wt): no bacterial growth found even after four inoculations and 0 | MIC at Total concentration BIT + MIT Qa + Qb (Escherichia coli; 72 h): 17.5 ppm | Qb/QB (Escherichia coli; 72 h): 1.00 | Synergy index Qa/QA + Qb/QB (Escherichia coli; 72 h, method of Kull): 1.00 | growth of the microorganism (Escherichia coli; 72 h, MIT 10 ppm): + | growth of the microorganism (Escherichia coli; 72 h, MIT 25 ppm): − | MIC at MIT concentration Qb (Escherichia coli; [7]): 17.5 ppm | MIC value (Escherichia coli; used alone, 72 h at 25° C.): 17.5 ppm | MIC at Total concentration BIT + MIT Qa + Qb (Pseudomonas stutzeri; 72 h): 12.5 ppm | Qb/QB (Pseudomonas stutzeri; 72 h): 1.00 | Synergy index Qa/QA + Qb/QB (Pseudomonas stutzeri; 72 h): 1.00 | growth of the microorganism (Pseudomonas stutzeri; 72 h, MIT 10 ppm): + | growth of the microorganism (Pseudomonas stutzeri; 72 h, MIT 15 ppm): − | MIC at MIT concentration Qb (Pseudomonas stutzeri; [7]): 12.5 ppm | MIC value (Pseudomonas stutzeri; used alone, 72 h at 25° C.): 12.5 ppm | MIC at Total concentration BIT + MIT Qa + Qb (Pseudomonas aeruginosa; 48 h): 30 ppm | Qb/QB (Pseudomonas aeruginosa; 48 h): 1.00 | Synergy index Qa/QA + Qb/QB (Pseudomonas aeruginosa; 48 h): 1.00 | MIC at MIT concentration Qb (Pseudomonas aeruginosa; [8]): 30 ppm | MIC value (Pseudomonas aeruginosa; used alone, 48 h at 25° C.): 30 ppm | MIC at Total concentration BIT + MIT Qa + Qb (Aspergillus niger [5]; 96 h): 100 ppm | Qb/QB (Aspergillus niger [5]; 96 h): 1.00 | Synergy index Qa/QA + Qb/QB (Aspergillus niger [5]; 96 h): 1.00 | MIC at MIT concentration Qb (Aspergillus niger [5]; [9]): 100 ppm | MIC value (Aspergillus niger [5]; used alone, 96 h at 25° C.): 750 ppm | MIC at Total concentration BIT + MIT Qa + Qb (Penicillium funiculosum [6]; 96 h): 40 ppm | Qb/QB (Penicillium funiculosum [6]; 96 h): 1.00 | Synergy index Qa/QA + Qb/QB (Penicillium funiculosum [6]; 96 h): 1.00 | MIC at MIT concentration Qb (Penicillium funiculosum [6]; [9]): 40 ppm | MIC value (Penicillium funiculosum [6]; used alone, 96 h at 25° C.): 200 ppm

Source: patent US6361788B1, “Synergistic biocide composition” (Thor Chemie GmbH, priority 1997, dated 2002)
